Results on three compounds are retold here after US20230109833A1, “METABOLICALLY STABLE N-ACYLAMINOOXADIAZOLES USEFUL AS ANTIBACTERIAL AGENTS” (MICROBIOTIX, INC., priority 2017, published 2023).

Data set [1] deals with MRSA strain BAA-1717 (TCH1516; USA300). Description: Murine efficacy, neutropenic thigh model. In kind it is in vivo, mouse. As to conditions: 25 mg/kg PO once 2 h after infection; CFU 24 hrs post dosage; compared to untreated controls.
The test system of data set [2] is GABAA, Muscimol, Central. In kind it is binding. The conditions noted are these: rat; 10 μM compound; Hit Profile Panel.
Data set [3] concerns Rolipram. In kind it is binding. As to conditions: rat; 10 μM compound; Hit Profile Panel.
Data set [4] has as its target CYP450, 1A2 (Homo sapiens, UniProt P05177). As to conditions: 10 µM.
For data set [5], the target named is T1, Adrenergic α1B (Rattus norvegicus, UniProt P15823).
T1 sequence (P15823 1-515): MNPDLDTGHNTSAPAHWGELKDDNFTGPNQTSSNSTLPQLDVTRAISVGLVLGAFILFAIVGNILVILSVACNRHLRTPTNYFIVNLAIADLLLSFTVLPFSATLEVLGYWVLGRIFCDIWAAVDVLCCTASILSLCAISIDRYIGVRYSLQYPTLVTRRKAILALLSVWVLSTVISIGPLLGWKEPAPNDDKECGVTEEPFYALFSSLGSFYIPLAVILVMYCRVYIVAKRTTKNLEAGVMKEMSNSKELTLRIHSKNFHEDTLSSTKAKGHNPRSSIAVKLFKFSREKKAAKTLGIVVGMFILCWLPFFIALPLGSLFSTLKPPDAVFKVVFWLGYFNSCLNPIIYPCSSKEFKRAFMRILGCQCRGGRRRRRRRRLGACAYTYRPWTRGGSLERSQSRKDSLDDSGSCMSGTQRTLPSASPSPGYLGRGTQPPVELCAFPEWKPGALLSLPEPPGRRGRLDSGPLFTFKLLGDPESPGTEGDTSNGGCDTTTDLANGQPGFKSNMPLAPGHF
In kind it is binding. The conditions noted are these: 10 μM compound, Hit Profile Panel.

Data set [6] concerns Glutamate, NMDA, Phencyclidine. In kind it is binding. The conditions noted are these: rat; 10 μM compound; Hit Profile Panel.
The target in data set [7] is Sigma σ1 (Homo sapiens, UniProt Q99720). In kind it is binding. The conditions noted are these: 10 μM compound, Hit Profile Panel.
Sigma σ1, sequence (Q99720 whole entry): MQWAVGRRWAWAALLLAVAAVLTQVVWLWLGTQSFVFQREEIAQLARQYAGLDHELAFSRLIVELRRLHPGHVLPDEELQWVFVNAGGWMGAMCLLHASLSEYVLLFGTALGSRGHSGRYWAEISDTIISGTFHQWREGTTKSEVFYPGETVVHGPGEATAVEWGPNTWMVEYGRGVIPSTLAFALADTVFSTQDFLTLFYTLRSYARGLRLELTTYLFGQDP
The target of data set [8] is Muscarinic M3 (Homo sapiens, UniProt P20309). In kind it is binding. The conditions noted are these: 10 μM compound, Hit Profile Panel.
Muscarinic M3, sequence (P20309 whole entry): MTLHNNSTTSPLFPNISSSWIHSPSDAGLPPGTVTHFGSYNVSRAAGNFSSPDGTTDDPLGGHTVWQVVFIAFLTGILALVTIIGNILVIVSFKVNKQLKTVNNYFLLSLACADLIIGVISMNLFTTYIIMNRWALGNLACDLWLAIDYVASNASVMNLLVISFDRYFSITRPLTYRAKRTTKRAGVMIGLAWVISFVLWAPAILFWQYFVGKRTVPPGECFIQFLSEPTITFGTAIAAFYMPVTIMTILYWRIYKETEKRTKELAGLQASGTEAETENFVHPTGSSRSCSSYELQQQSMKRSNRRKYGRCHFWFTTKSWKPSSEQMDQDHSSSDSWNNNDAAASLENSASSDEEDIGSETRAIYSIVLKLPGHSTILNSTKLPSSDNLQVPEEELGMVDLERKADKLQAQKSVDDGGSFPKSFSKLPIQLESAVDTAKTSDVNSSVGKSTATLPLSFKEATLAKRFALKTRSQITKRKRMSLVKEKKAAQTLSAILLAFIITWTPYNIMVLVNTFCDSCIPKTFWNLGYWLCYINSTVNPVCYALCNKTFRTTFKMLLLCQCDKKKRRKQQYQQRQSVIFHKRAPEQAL
The target in data set [9] is CYP450, 2C19 (Homo sapiens, UniProt P33261). As to conditions: 10 µM.
Data set [10] has as its target Nicotinic Acetylcholine a1, Bungarotoxin (Homo sapiens, UniProt P02708+P07510+Q07001). In kind it is binding. As to conditions: for inhibition at 10 µM: read-out: % Inhibition, Nicotinic Acetylcholine a1, Bungarotoxin.
Data set [11] concerns the target Adrenergic β2 (Homo sapiens, UniProt P07550). In kind it is binding. The conditions noted are these: 10 μM compound, Hit Profile Panel.
Data set [12] concerns the target Potassium Channel hERG (Homo sapiens, UniProt Q12809). As to conditions: 10 µM.
The target of data set [13] is T2, CYP3A4 (Homo sapiens, UniProt P08684).
T2 construct: purchased BD Gentest Corp., Woburn, Mass
T2 sequence (P08684 whole entry): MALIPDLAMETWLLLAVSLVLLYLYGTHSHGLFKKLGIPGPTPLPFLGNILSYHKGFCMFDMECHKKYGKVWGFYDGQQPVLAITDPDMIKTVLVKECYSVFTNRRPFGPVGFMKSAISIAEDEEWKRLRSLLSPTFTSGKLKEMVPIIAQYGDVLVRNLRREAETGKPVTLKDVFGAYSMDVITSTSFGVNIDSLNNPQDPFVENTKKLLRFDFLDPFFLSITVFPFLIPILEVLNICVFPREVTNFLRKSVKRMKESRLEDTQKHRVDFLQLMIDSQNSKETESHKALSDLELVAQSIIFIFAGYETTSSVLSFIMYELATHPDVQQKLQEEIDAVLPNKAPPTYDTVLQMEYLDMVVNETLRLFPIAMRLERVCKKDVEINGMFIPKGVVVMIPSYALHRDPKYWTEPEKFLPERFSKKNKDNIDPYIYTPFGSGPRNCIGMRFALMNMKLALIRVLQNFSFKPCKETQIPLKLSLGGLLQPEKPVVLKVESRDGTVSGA
Description: CYP450 inhibition. In kind it is biochemical. The conditions noted are these: 10 μM compound, Hit Profile Panel; for inhibition at 10 µM: read-out: % Inhibition, CYP450, 3A4. On the procedure: (§1) Because inhibition of cytochrome P450 (CYP450) enzymes in vitro is predictive of potential drug interactions in vivo, CYP450 inhibition was measured using commercially available Human Cytochrome P450 kits (BD Gentest Corp., Woburn, Mass.) for the major CYP450s: CYP3A4 and CYP2D6. The assays were performed according to the manufacturer's instructions.

Data set [14] has as its target T3, CYP2D6 (Homo sapiens, UniProt P10635).
T3 construct: purchased BD Gentest Corp., Woburn, Mass
In words: CYP450 inhibition. In kind it is biochemical. The conditions noted are these: 10 μM compound, Hit Profile Panel; for inhibition at 10 µM: read-out: % Inhibition, CYP450, 2D6. As to the method: as §1

Data set [15] has as its system Imidazoline I2, Central. In kind it is binding. As to conditions: rat; 10 μM compound; Hit Profile Panel.
The target in data set [16] is CYP450, 2C9 (Homo sapiens, UniProt P11712). As to conditions: 10 µM.
A short description of data set [17]: Tolerability studies. The conditions noted are these: data not shown. In kind it is in vivo.
For data set [18], the target named is Dopamine D2s (Homo sapiens, UniProt P14416). In kind it is binding. The conditions noted are these: 10 μM compound, Hit Profile Panel.
Dopamine D2s, sequence (P14416 1-414 isoform P14416-2): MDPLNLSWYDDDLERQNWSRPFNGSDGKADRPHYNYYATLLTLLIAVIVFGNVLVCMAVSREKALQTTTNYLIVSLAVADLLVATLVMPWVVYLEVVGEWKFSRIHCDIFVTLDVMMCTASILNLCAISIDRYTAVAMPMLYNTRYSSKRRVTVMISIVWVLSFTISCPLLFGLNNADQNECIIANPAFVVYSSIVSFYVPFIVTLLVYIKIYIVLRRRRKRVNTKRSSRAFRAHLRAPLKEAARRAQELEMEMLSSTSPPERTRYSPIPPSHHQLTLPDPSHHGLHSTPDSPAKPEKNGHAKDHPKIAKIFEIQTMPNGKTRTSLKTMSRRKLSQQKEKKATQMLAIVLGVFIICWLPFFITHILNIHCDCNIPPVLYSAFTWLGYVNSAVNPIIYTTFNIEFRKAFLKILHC
Data set [19] has as its target Opiate μ(OP3, MOP) (Homo sapiens, UniProt P35372). In kind it is binding. As to conditions: 10 μM compound, Hit Profile Panel.
A short description of data set [20]: Single dose PK (IV and PO). The conditions noted are these: mice, 10 mg/kg PO. In kind it is in vivo.
The subject of data set [21] is Sodium Channel, Site 2. In kind it is binding. The conditions noted are these: rat; 10 μM compound; Hit Profile Panel.
In data set [22] the target is hERG potassium channel (Homo sapiens, UniProt Q12809).
For data set [23], the target named is CYP2C19 (Homo sapiens, UniProt P33261).
In data set [24] the test system is 36 mammalian receptors. In kind it is binding. As to conditions: 10 μM; every receptor of the panel.
The target of data set [25] is CYP2C9 (Homo sapiens, UniProt P11712).
The target in data set [26] is CYP1A2 (Homo sapiens, UniProt P05177).
Data set [27] has as its system N. gonorrhoeae. Description: MIC (Table 2B). In kind it is cell-based. As to conditions: Neisseria gonorrhoeae; Table 2B, strain not given; read-out: N. gonorrhoeae MIC.

≈ marks a conversion by molar mass, not a printed value.

T3 sequence (P10635 whole entry): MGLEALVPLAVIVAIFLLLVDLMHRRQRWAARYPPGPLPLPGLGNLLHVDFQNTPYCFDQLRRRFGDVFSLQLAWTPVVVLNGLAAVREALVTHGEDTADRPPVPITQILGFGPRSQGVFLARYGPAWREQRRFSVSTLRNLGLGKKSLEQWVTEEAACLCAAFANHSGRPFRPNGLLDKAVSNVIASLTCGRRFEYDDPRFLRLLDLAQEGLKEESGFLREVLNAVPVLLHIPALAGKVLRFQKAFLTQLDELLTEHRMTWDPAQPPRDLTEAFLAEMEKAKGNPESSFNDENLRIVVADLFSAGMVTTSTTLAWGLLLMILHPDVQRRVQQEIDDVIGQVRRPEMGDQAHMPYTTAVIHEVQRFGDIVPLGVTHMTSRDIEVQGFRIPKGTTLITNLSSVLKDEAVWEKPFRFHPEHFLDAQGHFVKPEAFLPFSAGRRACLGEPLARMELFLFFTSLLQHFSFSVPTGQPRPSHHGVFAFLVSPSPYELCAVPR
Adrenergic β2, sequence (P07550 whole entry): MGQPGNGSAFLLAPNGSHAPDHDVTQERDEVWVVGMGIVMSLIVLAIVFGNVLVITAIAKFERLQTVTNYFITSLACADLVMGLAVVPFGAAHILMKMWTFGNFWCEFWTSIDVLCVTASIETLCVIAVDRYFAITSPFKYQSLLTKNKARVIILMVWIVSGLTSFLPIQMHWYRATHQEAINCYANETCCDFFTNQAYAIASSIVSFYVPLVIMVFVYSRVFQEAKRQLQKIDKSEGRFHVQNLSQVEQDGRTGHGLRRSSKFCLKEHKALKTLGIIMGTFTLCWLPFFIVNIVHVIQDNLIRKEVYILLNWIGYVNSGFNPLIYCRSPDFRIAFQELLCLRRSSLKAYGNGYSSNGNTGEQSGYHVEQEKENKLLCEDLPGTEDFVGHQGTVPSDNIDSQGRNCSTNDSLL
Nicotinic Acetylcholine a1, Bungarotoxin, sequence (P02708 21-457): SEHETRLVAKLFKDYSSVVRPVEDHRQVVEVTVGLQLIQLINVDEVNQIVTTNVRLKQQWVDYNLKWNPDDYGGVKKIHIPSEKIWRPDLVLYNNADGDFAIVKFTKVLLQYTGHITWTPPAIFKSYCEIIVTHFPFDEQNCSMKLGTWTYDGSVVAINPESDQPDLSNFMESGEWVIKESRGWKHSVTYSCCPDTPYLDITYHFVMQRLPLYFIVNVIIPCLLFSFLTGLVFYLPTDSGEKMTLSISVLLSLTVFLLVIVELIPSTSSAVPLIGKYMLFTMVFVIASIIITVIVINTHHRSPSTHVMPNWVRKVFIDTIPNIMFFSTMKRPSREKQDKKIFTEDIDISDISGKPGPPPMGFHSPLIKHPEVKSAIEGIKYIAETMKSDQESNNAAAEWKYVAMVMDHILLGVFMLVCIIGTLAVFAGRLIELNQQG
Nicotinic Acetylcholine a1, Bungarotoxin, sequence (P07510 23-517): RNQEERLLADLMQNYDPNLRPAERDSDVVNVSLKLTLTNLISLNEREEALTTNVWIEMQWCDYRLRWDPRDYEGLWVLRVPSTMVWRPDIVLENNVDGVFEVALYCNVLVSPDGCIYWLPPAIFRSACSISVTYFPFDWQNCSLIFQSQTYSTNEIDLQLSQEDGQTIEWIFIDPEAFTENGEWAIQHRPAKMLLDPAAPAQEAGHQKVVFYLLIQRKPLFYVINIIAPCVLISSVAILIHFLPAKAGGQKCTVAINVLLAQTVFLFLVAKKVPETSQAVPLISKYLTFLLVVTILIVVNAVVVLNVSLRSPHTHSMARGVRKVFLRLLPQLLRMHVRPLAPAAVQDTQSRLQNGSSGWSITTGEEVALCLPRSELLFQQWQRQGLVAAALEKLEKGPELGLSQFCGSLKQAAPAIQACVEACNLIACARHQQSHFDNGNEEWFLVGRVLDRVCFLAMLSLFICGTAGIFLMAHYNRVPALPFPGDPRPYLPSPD
Nicotinic Acetylcholine a1, Bungarotoxin, sequence (Q07001 22-517): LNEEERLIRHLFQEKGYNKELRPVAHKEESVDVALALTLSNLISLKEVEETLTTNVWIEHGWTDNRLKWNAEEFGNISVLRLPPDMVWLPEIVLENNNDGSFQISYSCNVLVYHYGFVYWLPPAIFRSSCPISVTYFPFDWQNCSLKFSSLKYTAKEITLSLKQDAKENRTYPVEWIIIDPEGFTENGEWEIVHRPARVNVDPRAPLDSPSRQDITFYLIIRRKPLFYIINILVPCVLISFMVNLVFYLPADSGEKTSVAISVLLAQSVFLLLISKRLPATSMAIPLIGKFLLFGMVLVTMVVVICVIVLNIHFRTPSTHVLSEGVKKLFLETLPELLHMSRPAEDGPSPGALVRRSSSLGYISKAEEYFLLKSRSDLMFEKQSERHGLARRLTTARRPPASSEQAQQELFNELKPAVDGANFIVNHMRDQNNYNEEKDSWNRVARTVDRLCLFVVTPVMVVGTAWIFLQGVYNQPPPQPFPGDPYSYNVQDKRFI
Nicotinic Acetylcholine a1, Bungarotoxin, sequence (P11230 24-501, further chain): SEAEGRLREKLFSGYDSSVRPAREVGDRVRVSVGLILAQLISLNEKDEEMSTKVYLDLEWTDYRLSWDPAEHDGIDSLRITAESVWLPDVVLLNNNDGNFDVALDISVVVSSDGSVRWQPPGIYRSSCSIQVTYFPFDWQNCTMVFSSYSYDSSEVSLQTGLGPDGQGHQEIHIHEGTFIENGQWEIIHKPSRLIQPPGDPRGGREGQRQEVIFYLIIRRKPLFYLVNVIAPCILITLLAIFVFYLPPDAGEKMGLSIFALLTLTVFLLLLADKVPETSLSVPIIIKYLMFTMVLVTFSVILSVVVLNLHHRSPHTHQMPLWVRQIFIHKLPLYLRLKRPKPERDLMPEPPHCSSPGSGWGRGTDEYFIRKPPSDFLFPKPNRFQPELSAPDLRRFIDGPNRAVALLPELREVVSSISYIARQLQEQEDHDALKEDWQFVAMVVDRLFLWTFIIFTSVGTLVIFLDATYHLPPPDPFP
Opiate μ(OP3, MOP), sequence (P35372 whole entry): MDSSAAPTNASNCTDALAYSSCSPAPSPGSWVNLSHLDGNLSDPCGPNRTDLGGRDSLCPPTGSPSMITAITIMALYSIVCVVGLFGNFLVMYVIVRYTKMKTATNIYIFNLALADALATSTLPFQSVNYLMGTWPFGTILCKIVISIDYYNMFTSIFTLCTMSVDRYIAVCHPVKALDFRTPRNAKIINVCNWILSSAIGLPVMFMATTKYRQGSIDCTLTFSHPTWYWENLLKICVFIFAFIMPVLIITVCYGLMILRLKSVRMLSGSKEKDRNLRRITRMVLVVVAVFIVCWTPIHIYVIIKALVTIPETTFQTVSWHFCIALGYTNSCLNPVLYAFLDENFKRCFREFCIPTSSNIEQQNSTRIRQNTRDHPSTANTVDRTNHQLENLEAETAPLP

`O=C(Nc1nnc(-c2ccc(F)cc2)o1)N1CCc2ccccc2C1` [MBX-4132]: the “drop in CFU/g” value in [1] was greater than 2 log. For the same compound, the “% Inhibition, GABAA, Muscimol, Central” value in data set [2] is on record as 1%. The “% Inhibition, Rolipram” value in data set [3] was 2%. In data set [4], the “% Inhibition, CYP450, 1A2” value stood at 9%. For the same compound, the “% Inhibition, Adrenergic α1B” value in data set [5] worked out at 21%. Further, the “% Inhibition, Glutamate, NMDA, Phencyclidine” value (“% Inhibition, Glutamate, NMDA” for short) in [6] was −3%. Also, the “% Inhibition, Sigma σ1” value in data set [7] was −4%. The “% Inhibition, Muscarinic M3” value in data set [8] worked out at 16%. The “% Inhibition, CYP450, 2C19” value in data set [9] came out at 44%. For the same compound, the “% Inhibition, Nicotinic Acetylcholine a1, Bungarotoxin” value in data set [10] (human, 10 μM compound, Hit Profile Panel) is 0%. For the same compound, the “% Inhibition, Adrenergic β2” value in [11] was 36%. The “% Inhibition, Potassium Channel hERG” value in data set [12] turned out to be 64%. In addition, the “% Inhibition, CYP450, 3A4” value in data set [13] was found to be 7%. Besides, the “% Inhibition, CYP450, 2D6” value in data set [14] worked out at 10%. In addition, the “% Inhibition, Imidazoline I2, Central” value in data set [15] amounted to 33%. Further, in data set [16], the “% Inhibition, CYP450, 2C9” value came to 10%. In addition, in [17] (100 mg/kg, PO, observed 24 h), the “elevated single dose tolerability” value was “no effects distinct from vehicle controls”. Further, in data set [17] (seven days of dosing at 25 mg/kg, SC, BID, observed 10 days), the multidose tolerability result is listed as “no effects distinct from vehicle controls”. For the same compound, the “% Inhibition, Dopamine D2s” value in [18] was 25%. Also, the “% Inhibition, Opiate μ(OP3, MOP)” value in data set [19] was found to be 74%. The “bioavailability, available from oral dosing” value in data set [20] is reported as greater than 75%. For the same compound, the “% Inhibition, Sodium Channel, Site 2” value in [21] came out at 4%.

Take `O=C(Nc1nnc(-c2ccc(F)cc2)o1)N1CC=C(C(F)(F)F)CC1` [compound 4347]: the inhibition (commonly the change of the read-out against control, counted positive when it falls) at 10 µM is 0% in data set [22]; 8% in [23]; 7% in data set [5]; -2% in data set [7]; 2% in data set [8]; 2% in data set [10]. Moreover, the inhibition at 10 µM in data set [11] is 8%; in [13], 9%; in [14] it was 9%; in data set [18], -2%; in data set [19], -14%; in [25] it was 4%. Further, the inhibition at 10 µM in data set [26] is 2%. Moreover, the “% Inhibition, GABAA, Muscimol, Central” value in data set [2] worked out at 4%. Besides, in data set [3], the “% Inhibition, Rolipram” value was −6%. For the same compound, the “% Inhibition, Glutamate, NMDA” value in data set [6] is on record as 5%. For the same compound, in data set [15], the “% Inhibition, Imidazoline I2, Central” value is given as −5%. Also, the “inhibition of the 36 mammalian receptors” value in [24] is on record as less than 50%. Also, in [21], the “% Inhibition, Sodium Channel, Site 2” value was −5%.

Consider `O=C(Nc1nnc(-c2ccc(F)cc2)o1)c1ccc(OC2CCCCC2)cc1` [compound 4292], for which the inhibition at 10 µM in [22] was 8%; in [23], 9%; in data set [5] it was 3%; in data set [7], 10%; in data set [8] it was 0%; in data set [10] it was -4%. Moreover, the inhibition at 10 µM turned out to be 6% in data set [11]; 4% in data set [13]; 2% in data set [14]; 1% in [18]; 4% in [19]; 10% in [25]. The inhibition at 10 µM in [26] amounted to 5%. Moreover, the “% Inhibition, GABAA, Muscimol, Central” value in [2] is listed as −4%. Also, in data set [3], the “% Inhibition, Rolipram” value was −8%. Also, the “% Inhibition, Glutamate, NMDA” value in [6] stood at 0%. Besides, the “% Inhibition, Imidazoline I2, Central” value in data set [15] was found to be 10%. The MIC (usually the lowest concentration that inhibits growth of the organism) in data set [27] was found to be 0.09 µg/mL (≈ 0.236 µM). The “% Inhibition, Sodium Channel, Site 2” value in data set [21] is listed as −2%.
